Data from article PMC7838297, “Acyl-CoA thioesterase activity of peroxisomal ABC protein ABCD1 is required for the transport of very long-chain acyl-CoA into peroxisomes” (Scientific Reports, 2021).

Columns and labels:
Format in all cases: biochemical
His-ABCD1 (human ABCD1) [1] = target: T1, His-ABCD1 (human ABCD1) (Homo sapiens, UniProt P33897); test: ATPase, phosphate release; conditions: 5 mM ATP, 11 mM MgCl2, pH 7.6, 37 °C; ABCD1-liposomes
T1 construct: full-length, His-tagged (tag kept), expressed in Komagataella phaffii pxa1-delta, beta-DDM-solubilised, metal-chelate purified, reconstituted into soybean PC liposomes; about 80 kDa band

His-KpFAA2 = target: T2, His-KpFAA2 (Komagataella phaffii, UniProt F2QZH2); test: acyl-CoA synthesis, TLC; conditions: 5 mM CoA, 5 mM ATP, 5 mM MgCl2, pH 7.5, 30 °C, 3 h
T2 construct: gene FAA2; His-tagged, expressed in K. phaffii SMD1168, metal-chelate purified as for His-ABCD1
T2 sequence (F2QZH2 1-741): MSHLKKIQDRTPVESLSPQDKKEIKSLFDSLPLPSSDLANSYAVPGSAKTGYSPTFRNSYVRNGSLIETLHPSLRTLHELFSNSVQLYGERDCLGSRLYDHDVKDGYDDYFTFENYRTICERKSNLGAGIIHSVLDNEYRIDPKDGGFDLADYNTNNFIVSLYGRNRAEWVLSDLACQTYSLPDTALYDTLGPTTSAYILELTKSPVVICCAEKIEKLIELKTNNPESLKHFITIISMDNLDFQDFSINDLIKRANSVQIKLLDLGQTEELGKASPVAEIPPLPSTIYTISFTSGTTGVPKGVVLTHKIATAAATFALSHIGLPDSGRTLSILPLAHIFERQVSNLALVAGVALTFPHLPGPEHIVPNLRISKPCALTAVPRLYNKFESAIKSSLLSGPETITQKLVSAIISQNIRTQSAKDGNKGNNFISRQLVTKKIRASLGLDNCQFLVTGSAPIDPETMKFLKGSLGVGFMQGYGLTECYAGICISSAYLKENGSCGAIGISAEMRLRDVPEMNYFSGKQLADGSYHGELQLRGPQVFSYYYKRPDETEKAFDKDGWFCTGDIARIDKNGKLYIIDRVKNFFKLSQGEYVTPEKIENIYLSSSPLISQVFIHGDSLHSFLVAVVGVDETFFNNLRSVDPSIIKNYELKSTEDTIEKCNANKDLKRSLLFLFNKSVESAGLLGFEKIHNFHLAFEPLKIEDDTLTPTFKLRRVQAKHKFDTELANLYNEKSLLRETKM

His-ABCD1 (human ABCD1) [2] = target: T1, His-ABCD1 (human ABCD1); test: thioesterase assay by TLC; in-gel fluorescence of acylated protein; conditions: 1 mM MgCl2, 37 °C; ABCD1-liposomes; covalent acyl (thioester) intermediate
His-ABCD1 (human ABCD1) [3] = target: T3, His-ABCD1 (human ABCD1) (Homo sapiens, UniProt P33897, K513A); test: as above; conditions: 1 mM MgCl2, 37 °C, 30 min; mutant liposomes; covalent acyl intermediate
T3 construct: full-length, His-tagged (tag kept), expressed in Komagataella phaffii pxa1-delta, beta-DDM-solubilised, metal-chelate purified, reconstituted into soybean PC liposomes; about 80 kDa band
T3 sequence (P33897 1-745 K513A): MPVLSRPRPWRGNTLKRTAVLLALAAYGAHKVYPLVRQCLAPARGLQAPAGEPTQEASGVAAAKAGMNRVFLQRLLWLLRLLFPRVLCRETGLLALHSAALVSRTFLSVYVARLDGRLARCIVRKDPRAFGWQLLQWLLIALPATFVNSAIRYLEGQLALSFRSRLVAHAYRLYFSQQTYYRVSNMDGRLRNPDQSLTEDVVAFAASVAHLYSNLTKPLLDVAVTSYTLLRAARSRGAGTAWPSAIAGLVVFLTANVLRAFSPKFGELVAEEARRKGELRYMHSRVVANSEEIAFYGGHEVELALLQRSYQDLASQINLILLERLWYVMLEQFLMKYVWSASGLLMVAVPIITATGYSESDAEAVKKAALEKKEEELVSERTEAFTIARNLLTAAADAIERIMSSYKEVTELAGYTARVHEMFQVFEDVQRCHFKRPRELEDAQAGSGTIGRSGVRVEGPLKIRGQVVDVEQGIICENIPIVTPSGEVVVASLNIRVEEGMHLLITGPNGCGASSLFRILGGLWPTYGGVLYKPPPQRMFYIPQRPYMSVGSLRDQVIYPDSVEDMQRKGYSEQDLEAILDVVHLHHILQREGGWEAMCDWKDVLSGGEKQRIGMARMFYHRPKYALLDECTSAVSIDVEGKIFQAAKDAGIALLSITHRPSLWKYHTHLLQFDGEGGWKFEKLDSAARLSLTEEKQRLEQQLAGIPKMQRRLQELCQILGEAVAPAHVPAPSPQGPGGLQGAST

His-ABCD1 (human ABCD1) [4] = target: T1, His-ABCD1 (human ABCD1); test: liposome transport assay of NBD-C16, dithionite quench, TLC; conditions: read-out: residual NBD-C16 transport at 20 μM

Nc1ncnc2c1ncn2[C@@H]1O[C@H](COP(=O)(O)OP(=O)(O)OP(=O)(O)O)[C@@H](O)[C@H]1O [ATP]
ATPase, phosphate release (His-ABCD1 (human ABCD1) [1]): ABCD1-liposomes possess ATPase activity

O=C(O)CCCCCNc1ccc([N+](=O)[O-])c2nonc12 [NBD-C6]
acyl-CoA synthesis, TLC (His-KpFAA2): NBD-C6) was incubated with purified His-KpFAA2 to generate NBD-hexanoyl-CoA

CC(C)(COP(=O)(O)OP(=O)(O)OC[C@H]1O[C@@H](n2cnc3c(N)ncnc32)[C@H](O)[C@@H]1OP(=O)(O)O)[C@@H](O)C(=O)NCCC(=O)NCCSC(=O)CCCCCCCCCCCCCCCNc1ccc([N+](=O)[O-])c2nonc12 [NBD-C16-CoA]
thioesterase assay by TLC; in-gel fluorescence of acylated protein (His-ABCD1 (human ABCD1) [2]): demonstrating that ABCD1 is covalently labeled by NBD-C16 | thioesterase assay by TLC; in-gel fluorescence of acylated protein (His-ABCD1 (human ABCD1) [3]): these mutants possess ACOT activity comparable to the wild type and exhibited covalent linkage

CCCCCCCCCCCCCCCC(=O)SCCNC(=O)CCNC(=O)[C@H](O)C(C)(C)COP(=O)(O)OP(=O)(O)OC[C@H]1O[C@@H](n2cnc3c(N)ncnc32)[C@H](O)[C@@H]1OP(=O)(O)O [palmitoyl-CoA]
remaining activity at 20 µM (His-ABCD1 (human ABCD1) [4]): 3.95 ± 0.7%
